Measurements as given in article PMC3834762 (British Journal of Pharmacology, 2013).
Positions count from the first letter of the chain named.

Columns and labels:
Type in all cases: cell-based
5‐HT3AB receptors = biological target: T1, 5‐HT3AB receptors (Homo sapiens, UniProt O95264+P46098); assay: two‐electrode voltage clamp, wild type 5‐HT3AB receptors in Xenopus oocytes
T1 sequence (P46098 24-478): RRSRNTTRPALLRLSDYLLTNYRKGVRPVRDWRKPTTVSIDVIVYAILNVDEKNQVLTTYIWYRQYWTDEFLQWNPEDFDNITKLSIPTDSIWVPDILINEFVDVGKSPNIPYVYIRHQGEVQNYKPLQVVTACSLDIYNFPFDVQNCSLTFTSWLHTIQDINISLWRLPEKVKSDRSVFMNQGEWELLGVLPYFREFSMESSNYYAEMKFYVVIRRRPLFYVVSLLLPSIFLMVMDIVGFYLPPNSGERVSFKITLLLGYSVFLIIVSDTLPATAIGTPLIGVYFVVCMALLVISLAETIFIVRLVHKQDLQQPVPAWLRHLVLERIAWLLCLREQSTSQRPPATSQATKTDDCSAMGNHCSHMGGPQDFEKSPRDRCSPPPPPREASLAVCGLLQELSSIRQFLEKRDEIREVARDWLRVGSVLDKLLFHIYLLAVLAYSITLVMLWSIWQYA
T1 sequence (O95264 22-441): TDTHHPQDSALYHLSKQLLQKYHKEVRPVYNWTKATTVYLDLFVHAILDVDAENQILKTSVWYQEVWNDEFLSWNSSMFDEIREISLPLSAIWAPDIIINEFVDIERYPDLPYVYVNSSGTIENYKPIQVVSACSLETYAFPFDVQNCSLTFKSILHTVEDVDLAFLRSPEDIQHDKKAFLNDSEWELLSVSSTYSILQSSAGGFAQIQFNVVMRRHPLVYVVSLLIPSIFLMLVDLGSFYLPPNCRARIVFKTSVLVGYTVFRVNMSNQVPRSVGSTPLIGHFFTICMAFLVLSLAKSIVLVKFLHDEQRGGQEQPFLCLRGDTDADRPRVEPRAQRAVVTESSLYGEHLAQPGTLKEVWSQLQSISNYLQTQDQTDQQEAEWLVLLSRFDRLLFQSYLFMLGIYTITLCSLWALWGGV

5‐HT3A receptors = biological target: T2, 5‐HT3A receptors (Homo sapiens, UniProt P46098); assay: two‐electrode voltage clamp, wild type 5‐HT3A receptors in Xenopus oocytes
T2 sequence (P46098 24-478): T1 sequence (P46098 24-478)

5‐HT3AT6'SB receptors = biological target: T3, 5‐HT3AT6'SB receptors (Homo sapiens, UniProt O95264+P46098, T279S); assay: two‐electrode voltage clamp, 5‐HT3AT6'SB mutant receptors in Xenopus oocytes; details: maximal current amplitude for the test ligand compared to 5‐HT
T3 sequence (P46098 24-478 T279S): T1 sequence (P46098 24-478) with T256S
T3 sequence (O95264 22-441): T1 sequence (O95264 22-441)

5‐HT3AT6'S receptors = biological target: T4, 5‐HT3AT6'S receptors (Homo sapiens, UniProt P46098, T279S); assay: two‐electrode voltage clamp, 5‐HT3AT6'S mutant receptors in Xenopus oocytes; details: maximal current amplitude for the test ligand compared to 5‐HT
T4 sequence (P46098 24-478 T279S): T1 sequence (P46098 24-478) with T256S

long‐lived inhibition of subsequent agonist responses (5‐HT3A receptors; wild type 5‐HT3A and 5‐HT3AB receptors): > 20 min | Rmax (5‐HT3AT6'SB receptors): 1.2 | Rmax (5‐HT3AT6'S receptors): 0.9
Compound: c1ccc2nc(N3CCNCC3)ccc2c1 [Quipazine]
agonist response (5‐HT3AB receptors): too small to accurately determine functional parameters | agonist response (5‐HT3A receptors; 5‐HT3A): too small to accurately determine functional parameters
